Experimental findings from BindingDB's records for doi:10.1124/jpet.301.2.527 (Mercer University, 2002) are described below.

For experiment [1], the target named is Sodium-dependent dopamine transporter (Rattus norvegicus, UniProt P23977).
For experiment [2], the target named is Sodium-dependent serotonin transporter (Rattus norvegicus, UniProt P31652).

pKi: −log10 of the molar value. Some results are limits rather than exact numbers.

Sequence of Sodium-dependent serotonin transporter (P31652 whole entry): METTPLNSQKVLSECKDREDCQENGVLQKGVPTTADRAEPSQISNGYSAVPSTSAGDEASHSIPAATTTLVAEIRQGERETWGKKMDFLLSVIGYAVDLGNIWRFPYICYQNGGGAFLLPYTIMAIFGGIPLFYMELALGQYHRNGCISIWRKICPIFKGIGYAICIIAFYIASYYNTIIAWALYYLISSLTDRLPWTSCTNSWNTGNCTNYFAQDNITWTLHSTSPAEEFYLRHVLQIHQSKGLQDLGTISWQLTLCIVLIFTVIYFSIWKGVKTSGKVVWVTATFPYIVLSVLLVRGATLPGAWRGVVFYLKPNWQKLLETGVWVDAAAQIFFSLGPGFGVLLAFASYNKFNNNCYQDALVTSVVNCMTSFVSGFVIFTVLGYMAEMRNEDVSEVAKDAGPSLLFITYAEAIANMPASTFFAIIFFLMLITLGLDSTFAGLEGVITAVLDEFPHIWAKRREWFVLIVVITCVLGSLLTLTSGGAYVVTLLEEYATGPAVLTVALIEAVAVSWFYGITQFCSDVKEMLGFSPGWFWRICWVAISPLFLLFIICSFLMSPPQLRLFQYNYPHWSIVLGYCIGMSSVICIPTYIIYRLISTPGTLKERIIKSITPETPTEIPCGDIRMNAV
Sequence of Sodium-dependent dopamine transporter (P23977 whole entry): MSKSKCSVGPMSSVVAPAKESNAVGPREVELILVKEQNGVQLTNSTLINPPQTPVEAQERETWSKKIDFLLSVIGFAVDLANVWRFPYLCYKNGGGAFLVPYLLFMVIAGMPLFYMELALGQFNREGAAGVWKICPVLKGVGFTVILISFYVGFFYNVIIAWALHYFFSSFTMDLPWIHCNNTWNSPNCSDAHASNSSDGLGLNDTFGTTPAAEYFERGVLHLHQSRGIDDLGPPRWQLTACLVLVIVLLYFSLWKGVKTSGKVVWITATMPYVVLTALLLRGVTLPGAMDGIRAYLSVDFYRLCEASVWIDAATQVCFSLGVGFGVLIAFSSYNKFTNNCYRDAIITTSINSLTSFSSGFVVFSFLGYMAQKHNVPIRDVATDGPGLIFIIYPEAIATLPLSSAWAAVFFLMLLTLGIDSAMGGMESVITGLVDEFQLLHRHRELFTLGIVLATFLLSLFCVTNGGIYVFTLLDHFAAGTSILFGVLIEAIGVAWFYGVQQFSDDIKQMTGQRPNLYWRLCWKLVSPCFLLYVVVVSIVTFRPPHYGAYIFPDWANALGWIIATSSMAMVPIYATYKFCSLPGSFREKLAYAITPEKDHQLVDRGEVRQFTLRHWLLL

Compound `COC(=O)[C@H](c1ccc(Cl)c(Cl)c1)[C@@H]1CCCCN1` [3,4CTMP] had a negative-log Ki (pKi) in experiment [1] of 8.28.
Regarding `COC(=O)[C@H](c1cccc(Cl)c1)[C@@H]1CCCCN1C` [3CTMPNMe], the pKi was 6.80 in experiment [1] and below 5.00 in experiment [2].
`COC(=O)[C@H](c1cccc(Cl)c1)[C@@H]1CCCCN1` [3CTMP]: the pKi in experiment [1] was 8.29; in experiment [2], below 5.00.
Taken in the same sequence, the figures for `COC(=O)[C@H](c1ccc(N)cc1)[C@@H]1CCCCN1` [4ATMP] were 7.46 and below 5.00.
Regarding `COC(=O)[C@H](c1ccc(F)cc1)[C@@H]1CCCCN1` [4FTMP], the pKi in experiment [1] is 7.46; in experiment [2], below 5.00.
In the case of `COC(=O)[C@H](c1ccc(C)cc1)[C@@H]1CCCCN1C` [4MeTMPNMe], the pKi is 6.85 in experiment [1] and 5.96 in experiment [2].
As to `COC(=O)[C@H](c1ccc(C)cc1)[C@@H]1CCCCN1` [4MeTMP], the pKi in experiment [1] is 7.48; in experiment [2] it was below 5.00.
The like results for `COC(=O)[C@H](c1ccccc1)[C@@H]1CCCCN1C` [TMPNMe] were, in that order, 6.30 and below 5.00.
As to `COC(=O)[C@H](c1ccccc1)[C@@H]1CCCCN1` [TMP], the pKi in experiment [2] is below 5.00.
As to `CCCCN1CCCC[C@H]1[C@H](CO)c1ccccc1` [TROHNBn], the pKi in experiment [1] was 7.63; in experiment [2] it was 6.69.
Regarding `CCCCN1CCCC[C@H]1[C@H](COC)c1ccccc1` [TROMeNBn], the negative logarithm of the Ki (pKi) in experiment [1] is 7.75; in experiment [2], 6.78.
